Assay results as given in ChEMBL document CHEMBL1201862, “PubChem BioAssay data set” (2004).
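96-well plates; 48 h exposure; 5 concentrations. Endpoints by linear interpolation between flanking doses. Not reached: highest tested concentration assigned. Here, GI50 denotes the concentration required for 50% inhibition of growth.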 Calls of active or inactive are those of the source. No stated cut-off is given here; in the data, active = GI50 up to about 1.1 µM and inactive = higher.

Columns and labels:
Experiment in all cases: NCI-60 cell line screen, 48 h
SF-295 = tested on: SF-295
SN12C = tested on: SN12C
M14 = tested on: M14
XF498 = tested on: XF498
HCT-15 = tested on: HCT-15
SW-620 = tested on: SW-620
HCT-116 = tested on: HCT-116
OVCAR-4 = tested on: OVCAR-4
DLD-1 = tested on: DLD-1
K562 = tested on: K562
HOP-92 = tested on: HOP-92
NCI-H460 = tested on: NCI-H460
RPMI-8226 = tested on: RPMI-8226
LOX IMVI = tested on: LOX IMVI
OVCAR-5 = tested on: OVCAR-5
UO-31 = tested on: UO-31
TK-10 = tested on: TK-10
SNB-19 = tested on: SNB-19
RXF 393 = tested on: RXF 393
UACC-62 = tested on: UACC-62
SF-268 = tested on: SF-268
CAKI-1 = tested on: CAKI-1
DMS-273 = tested on: DMS-273
SK-MEL-28 = tested on: SK-MEL-28
NCI-H522 = tested on: NCI-H522
DMS-114 = tested on: DMS-114
EKVX = tested on: EKVX
SK-MEL-5 = tested on: SK-MEL-5
A498 = tested on: A498
KM-20L2 = tested on: KM-20L2
NCI-H23 = tested on: NCI-H23
HCC 2998 = tested on: HCC 2998
KM12 = tested on: KM12
IGROV-1 = tested on: IGROV-1
SNB-78 = tested on: SNB-78
M19-MEL = tested on: M19-MEL
HOP-18 = tested on: HOP-18
OVCAR-8 = tested on: OVCAR-8
UACC-257 = tested on: UACC-257
OVCAR-3 = tested on: OVCAR-3
HL-60 = tested on: HL-60
SNB-75 = tested on: SNB-75
SK-OV-3 = tested on: SK-OV-3
SF-539 = tested on: SF-539
ACHN = tested on: ACHN
U-251 = tested on: U-251
MOLT-4 = tested on: MOLT-4
HT-29 = tested on: HT-29
SR = tested on: SR
A549 = tested on: A549
786-0 = tested on: 786-0
HOP-62 = tested on: HOP-62
CCRF-CEM = tested on: CCRF-CEM
LXFL 529 = tested on: LXFL 529
COLO 205 = tested on: COLO 205
Malme-3M = tested on: Malme-3M
NCI-H226 = tested on: NCI-H226
SK-MEL-2 = tested on: SK-MEL-2

O=C(/C=C/c1ccc([N+](=O)[O-])o1)N1CCN(Cc2ccccc2)CC1
GI50 (SF-295): 15.3 µM (inactive)
GI50 (SN12C): 9.04 µM (inactive)
GI50 (M14): 4.66 µM (inactive)
GI50 (XF498): 16.7 µM (inactive)
GI50 (HCT-15): 4.41 µM
GI50 (SW-620): 7.08 µM (inactive)
GI50 (HCT-116): 10.8 µM (inactive)
GI50 (OVCAR-4): 15.6 µM (inactive)
GI50 (DLD-1): 5.96 µM (inactive)
GI50 (K562): 3.46 µM (inactive)
GI50 (HOP-92): 14.1 µM (inactive)
GI50 (NCI-H460): 11.2 µM (inactive)
GI50 (RPMI-8226): 10.5 µM (inactive)
GI50 (LOX IMVI): 12.6 µM (inactive)
GI50 (OVCAR-5): 17.3 µM (inactive)
GI50 (UO-31): 17.3 µM (inactive)
GI50 (TK-10): 23.2 µM (inactive)
GI50 (SNB-19): 16.2 µM (inactive)
GI50 (RXF 393): 11.8 µM (inactive)
GI50 (UACC-62): 6.82 µM (inactive)
GI50 (SF-268): 14 µM (inactive)
GI50 (CAKI-1): 8.17 µM (inactive)
GI50 (DMS-273): 9.82 µM (inactive)
GI50 (SK-MEL-28): 4.89 µM (inactive)
GI50 (NCI-H522): 2.82 µM (inactive)
GI50 (DMS-114): 12.2 µM (inactive)
GI50 (EKVX): 22.4 µM (inactive)
GI50 (SK-MEL-5): 10.2 µM (inactive)
GI50 (A498): 15.7 µM (inactive)
GI50 (KM-20L2): 10.9 µM (inactive)
GI50 (NCI-H23): 5.93 µM (inactive)
GI50 (HCC 2998): 15.7 µM (inactive)
GI50 (KM12): 12.1 µM (inactive)
GI50 (IGROV-1): 16.5 µM (inactive)
GI50 (SNB-78): 17.1 µM (inactive)
GI50 (M19-MEL): 6.43 µM (inactive)
GI50 (HOP-18): 22.6 µM (inactive)
GI50 (OVCAR-8): 12.2 µM (inactive)
GI50 (UACC-257): 7.89 µM (inactive)
GI50 (OVCAR-3): 17.7 µM (inactive)
GI50 (HL-60): 2.56 µM (inactive)
GI50 (SNB-75): 14.7 µM (inactive)
GI50 (SK-OV-3): 43.5 µM (inactive)
GI50 (SF-539): 6.61 µM (inactive)
GI50 (ACHN): 14.7 µM (inactive)
GI50 (U-251): 14 µM (inactive)
GI50 (MOLT-4): 11.6 µM (inactive)
GI50 (HT-29): 5.81 µM (inactive)
GI50 (SR): 13 µM (inactive)
GI50 (A549): 16.9 µM (inactive)
GI50 (786-0): 12.7 µM (inactive)
GI50 (HOP-62): 20.2 µM (inactive)
GI50 (CCRF-CEM): 2.7 µM (inactive)
GI50 (LXFL 529): 6.56 µM (inactive)

CCC(=O)OC1CCn2c1nc1c2C(=O)C(C)=C(NC(C)=O)C1=N (stereo not drawn)
GI50 (SF-295): 2.02 µM (inactive)
GI50 (SN12C): 1.6 µM (inactive)
GI50 (XF498): 2.65 µM (inactive)
GI50 (COLO 205): 1.72 µM (inactive)
GI50 (HCT-15): 2.25 µM
GI50 (Malme-3M): 1.43 µM (inactive)
GI50 (SW-620): 0.916 µM (active)
GI50 (HCT-116): 0.849 µM (active)
GI50 (OVCAR-4): 1.35 µM (inactive)
GI50 (DLD-1): 1.42 µM (inactive)
GI50 (K562): 2.34 µM (inactive)
GI50 (HOP-92): 2.21 µM (inactive)
GI50 (NCI-H460): 1.47 µM (inactive)
GI50 (RPMI-8226): 2.06 µM (inactive)
GI50 (LOX IMVI): 0.755 µM (active)
GI50 (OVCAR-5): 1.87 µM (inactive)
GI50 (UO-31): 2.2 µM (inactive)
GI50 (TK-10): 3.72 µM (inactive)
GI50 (SNB-19): 5.26 µM (inactive)
GI50 (UACC-62): 1.32 µM (inactive)
GI50 (SF-268): 2.54 µM (inactive)
GI50 (CAKI-1): 0.653 µM (active)
GI50 (NCI-H226): 1.93 µM (inactive)
GI50 (DMS-273): 1.67 µM (inactive)
GI50 (SK-MEL-28): 2.05 µM (inactive)
GI50 (NCI-H522): 1.39 µM (inactive)
GI50 (DMS-114): 1.5 µM (inactive)
GI50 (EKVX): 2.63 µM (inactive)
GI50 (SK-MEL-5): 1.29 µM (inactive)
GI50 (A498): 1.82 µM (inactive)
GI50 (KM-20L2): 1.73 µM (inactive)
GI50 (NCI-H23): 1.77 µM (inactive)
GI50 (HCC 2998): 3.4 µM (inactive)
GI50 (KM12): 2.11 µM (inactive)
GI50 (IGROV-1): 2.29 µM (inactive)
GI50 (SNB-78): 2.6 µM (inactive)
GI50 (M19-MEL): 0.186 µM (active)
GI50 (HOP-18): 1.8 µM (inactive)
GI50 (OVCAR-8): 1.04 µM (active)
GI50 (UACC-257): 1.24 µM (inactive)
GI50 (OVCAR-3): 0.453 µM (active)
GI50 (HL-60): 0.774 µM (active)
GI50 (SNB-75): 2.48 µM (inactive)
GI50 (SK-OV-3): 2.6 µM (inactive)
GI50 (SF-539): 1.74 µM (inactive)
GI50 (ACHN): 1.77 µM (inactive)
GI50 (U-251): 3.74 µM (inactive)
GI50 (MOLT-4): 1.54 µM (inactive)
GI50 (HT-29): 1.61 µM (inactive)
GI50 (SK-MEL-2): 1.75 µM (inactive)
GI50 (SR): 2 µM (inactive)
GI50 (A549): 3.02 µM (inactive)
GI50 (786-0): 2.43 µM (inactive)
GI50 (HOP-62): 1.83 µM (inactive)
GI50 (CCRF-CEM): 1 µM (active)

Nc1nnc(NC(=O)C2=NS(=O)(=O)c3cc(S(N)(=O)=O)c(Cl)cc3N2)[nH]1
GI50 (SF-295): > 100 µM (inactive)
GI50 (SN12C): > 100 µM (inactive)
GI50 (M14): > 100 µM (inactive)
GI50 (XF498): > 100 µM (inactive)
GI50 (COLO 205): > 100 µM (inactive)
GI50 (HCT-15): > 100 µM
GI50 (Malme-3M): > 100 µM (inactive)
GI50 (SW-620): > 100 µM (inactive)
GI50 (HCT-116): > 100 µM (inactive)
GI50 (OVCAR-4): > 100 µM (inactive)
GI50 (DLD-1): > 100 µM (inactive)
GI50 (K562): > 100 µM (inactive)
GI50 (HOP-92): > 100 µM (inactive)
GI50 (NCI-H460): > 100 µM (inactive)
GI50 (RPMI-8226): > 100 µM (inactive)
GI50 (LOX IMVI): > 100 µM (inactive)
GI50 (OVCAR-5): > 100 µM (inactive)
GI50 (UO-31): > 100 µM (inactive)
GI50 (TK-10): > 100 µM (inactive)
GI50 (SNB-19): > 100 µM (inactive)
GI50 (RXF 393): > 100 µM (inactive)
GI50 (UACC-62): > 100 µM (inactive)
GI50 (SF-268): > 100 µM (inactive)
GI50 (CAKI-1): > 100 µM (inactive)
GI50 (NCI-H226): > 100 µM (inactive)
GI50 (SK-MEL-28): > 100 µM (inactive)
GI50 (NCI-H522): > 100 µM (inactive)
GI50 (DMS-114): > 100 µM (inactive)
GI50 (EKVX): > 100 µM (inactive)
GI50 (SK-MEL-5): > 100 µM (inactive)
GI50 (A498): > 100 µM (inactive)
GI50 (KM-20L2): > 100 µM (inactive)
GI50 (NCI-H23): > 100 µM (inactive)
GI50 (HCC 2998): 0.752 µM (active)
GI50 (KM12): > 100 µM (inactive)
GI50 (IGROV-1): > 100 µM (inactive)
GI50 (SNB-78): > 100 µM (inactive)
GI50 (M19-MEL): > 100 µM (inactive)
GI50 (HOP-18): > 100 µM (inactive)
GI50 (UACC-257): > 100 µM (inactive)
GI50 (OVCAR-3): > 100 µM (inactive)
GI50 (SNB-75): > 100 µM (inactive)
GI50 (SK-OV-3): > 100 µM (inactive)
GI50 (SF-539): > 100 µM (inactive)
GI50 (ACHN): > 100 µM (inactive)
GI50 (U-251): > 100 µM (inactive)
GI50 (MOLT-4): > 100 µM (inactive)
GI50 (HT-29): > 100 µM (inactive)
GI50 (SR): > 100 µM (inactive)
GI50 (A549): > 100 µM (inactive)
GI50 (786-0): > 100 µM (inactive)
GI50 (HOP-62): > 100 µM (inactive)
GI50 (CCRF-CEM): > 100 µM (inactive)
GI50 (LXFL 529): > 100 µM (inactive)
